Data: PubChem BioAssay (NCI)
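Step 1: Grow cells in 96-well plates. Step 2: Expose to compound for 48 hours at 5 concentrations. Step 3: Interpolate endpoints linearly; if unreached, use highest concentration. The concentration for full growth arrest is given as TGI.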

Legend:
Assay in all cases: NCI-60 cell line screen, 48 h
HS 578T breast = test system: HS 578T breast
SF-268 CNS = test system: SF-268 CNS
SK-MEL-28 melanoma = test system: SK-MEL-28 melanoma
SW-620 colon = test system: SW-620 colon
NCI-H522 lung = test system: NCI-H522 lung
K-562 leukemia = test system: K-562 leukemia
SR leukemia = test system: SR leukemia
TK-10 renal = test system: TK-10 renal
NCI-H226 lung = test system: NCI-H226 lung
MCF7 breast = test system: MCF7 breast
OVCAR-8 ovarian = test system: OVCAR-8 ovarian
NCI-H23 lung = test system: NCI-H23 lung
CCRF-CEM leukemia = test system: CCRF-CEM leukemia
NCI-H460 lung = test system: NCI-H460 lung
SK-OV-3 ovarian = test system: SK-OV-3 ovarian
SF-539 CNS = test system: SF-539 CNS
SF-295 CNS = test system: SF-295 CNS
SNB-75 CNS = test system: SNB-75 CNS
MOLT-4 leukemia = test system: MOLT-4 leukemia
SK-MEL-2 melanoma = test system: SK-MEL-2 melanoma
HCT-116 colon = test system: HCT-116 colon
OVCAR-3 ovarian = test system: OVCAR-3 ovarian
OVCAR-5 ovarian = test system: OVCAR-5 ovarian
HT29 colon = test system: HT29 colon
UACC-62 melanoma = test system: UACC-62 melanoma
MDA-MB-231 breast = test system: MDA-MB-231 breast
IGROV1 ovarian = test system: IGROV1 ovarian
A549 NSCLC = test system: A549 NSCLC
LOX IMVI melanoma = test system: LOX IMVI melanoma
MDA-N = test system: MDA-N
PC-3 prostate = test system: PC-3 prostate
ACHN renal = test system: ACHN renal
RXF 393 renal = test system: RXF 393 renal
BT-549 breast = test system: BT-549 breast
KM12 colon = test system: KM12 colon
NCI/ADR-RES ovarian = test system: NCI/ADR-RES ovarian
HOP-92 NSCLC = test system: HOP-92 NSCLC
DU-145 prostate = test system: DU-145 prostate
HL-60(TB) leukemia = test system: HL-60(TB) leukemia
SK-MEL-5 melanoma = test system: SK-MEL-5 melanoma
UACC-257 melanoma = test system: UACC-257 melanoma
SN12C renal = test system: SN12C renal
COLO 205 colon = test system: COLO 205 colon
CAKI-1 renal = test system: CAKI-1 renal
MALME-3M melanoma = test system: MALME-3M melanoma
HOP-62 NSCLC = test system: HOP-62 NSCLC
HCT-15 colon = test system: HCT-15 colon
EKVX NSCLC = test system: EKVX NSCLC
HCC-2998 colon = test system: HCC-2998 colon
MDA-MB-435 = test system: MDA-MB-435
T-47D breast = test system: T-47D breast
SNB-19 CNS = test system: SNB-19 CNS
UO-31 renal = test system: UO-31 renal
RPMI-8226 leukemia = test system: RPMI-8226 leukemia
M14 melanoma = test system: M14 melanoma
OVCAR-4 ovarian = test system: OVCAR-4 ovarian
U251 CNS = test system: U251 CNS
A498 renal = test system: A498 renal
786-0 renal = test system: 786-0 renal

SMILES: CC(=O)O[C@H]1C(=O)[C@@]2(C)[C@H]([C@H](OC(=O)c3ccccc3)[C@]3(O)C[C@H](OC(=O)[C@H](O)[C@@H](NC(=O)c4ccccc4)c4ccccc4C)C(C)=C1C3(C)C)[C@]1(OC(C)=O)CO[C@@H]1C[C@@H]2O
- TGI (HS 578T breast): 1.73 µM
- TGI (SF-268 CNS): > 25 µM
- TGI (SK-MEL-28 melanoma): > 15.2 µM
- TGI (SW-620 colon): > 25 µM
- TGI (NCI-H522 lung): 4.29 µM
- TGI (K-562 leukemia): 5.08 µM
- TGI (SR leukemia): 4.06 µM
- TGI (TK-10 renal): 18.9 µM
- TGI (NCI-H226 lung): > 25 µM
- TGI (MCF7 breast): > 16.1 µM
- TGI (OVCAR-8 ovarian): 12.7 µM
- TGI (NCI-H23 lung): > 11.6 µM
- TGI (CCRF-CEM leukemia): 2.7 µM
- TGI (NCI-H460 lung): > 11.3 µM
- TGI (SK-OV-3 ovarian): > 12.7 µM
- TGI (SF-539 CNS): 1.93 µM
- TGI (SF-295 CNS): > 9.21 µM
- TGI (SNB-75 CNS): 10.1 µM
- TGI (MOLT-4 leukemia): 5.35 µM
- TGI (SK-MEL-2 melanoma): 11.5 µM
- TGI (HCT-116 colon): 9.15 µM
- TGI (OVCAR-3 ovarian): 4.87 µM
- TGI (OVCAR-5 ovarian): 4.74 µM
- TGI (HT29 colon): 18.4 µM
- TGI (UACC-62 melanoma): > 15.8 µM
- TGI (MDA-MB-231 breast): > 16.1 µM
- TGI (IGROV1 ovarian): > 25 µM
- TGI (A549 NSCLC): > 25 µM
- TGI (LOX IMVI melanoma): > 25 µM
- TGI (MDA-N): 0.392 µM
- TGI (PC-3 prostate): > 9.4 µM
- TGI (ACHN renal): > 25 µM
- TGI (RXF 393 renal): 3.97 µM
- TGI (BT-549 breast): > 11.8 µM
- TGI (KM12 colon): 5.75 µM
- TGI (NCI/ADR-RES ovarian): > 25 µM
- TGI (HOP-92 NSCLC): 24.2 µM
- TGI (DU-145 prostate): > 20.6 µM
- TGI (HL-60(TB) leukemia): 0.228 µM
- TGI (SK-MEL-5 melanoma): 3.05 µM
- TGI (UACC-257 melanoma): > 11.7 µM
- TGI (SN12C renal): > 25 µM
- TGI (COLO 205 colon): 1.79 µM
- TGI (CAKI-1 renal): > 25 µM
- TGI (MALME-3M melanoma): > 24 µM
- TGI (HOP-62 NSCLC): > 25 µM
- TGI (HCT-15 colon): > 25 µM
- TGI (EKVX NSCLC): > 25 µM
- TGI (HCC-2998 colon): 7.11 µM
- TGI (MDA-MB-435): 0.289 µM
- TGI (T-47D breast): > 25 µM
- TGI (SNB-19 CNS): > 25 µM
- TGI (UO-31 renal): > 24.2 µM
- TGI (RPMI-8226 leukemia): 1.03 µM
- TGI (M14 melanoma): 3.02 µM
- TGI (OVCAR-4 ovarian): > 23.3 µM
- TGI (U251 CNS): 6 µM
- TGI (A498 renal): 9.4 µM
- TGI (786-0 renal): 12.8 µM

SMILES: CCC(=O)/C=C/c1ccccc1
- TGI (HS 578T breast): > 100 µM
- TGI (SF-268 CNS): > 100 µM
- TGI (SK-MEL-28 melanoma): > 100 µM
- TGI (SW-620 colon): > 100 µM
- TGI (NCI-H522 lung): > 100 µM
- TGI (K-562 leukemia): > 100 µM
- TGI (SR leukemia): > 100 µM
- TGI (TK-10 renal): > 100 µM
- TGI (NCI-H226 lung): > 100 µM
- TGI (MCF7 breast): > 100 µM
- TGI (OVCAR-8 ovarian): > 100 µM
- TGI (NCI-H23 lung): > 100 µM
- TGI (CCRF-CEM leukemia): > 100 µM
- TGI (NCI-H460 lung): > 100 µM
- TGI (SK-OV-3 ovarian): > 100 µM
- TGI (SF-539 CNS): > 100 µM
- TGI (SF-295 CNS): > 100 µM
- TGI (SNB-75 CNS): > 100 µM
- TGI (MOLT-4 leukemia): 89.2 µM
- TGI (SK-MEL-2 melanoma): > 100 µM
- TGI (HCT-116 colon): > 100 µM
- TGI (OVCAR-3 ovarian): > 100 µM
- TGI (OVCAR-5 ovarian): > 100 µM
- TGI (HT29 colon): > 100 µM
- TGI (UACC-62 melanoma): > 100 µM
- TGI (MDA-MB-231 breast): > 100 µM
- TGI (IGROV1 ovarian): > 100 µM
- TGI (A549 NSCLC): > 100 µM
- TGI (LOX IMVI melanoma): > 100 µM
- TGI (MDA-N): > 100 µM
- TGI (PC-3 prostate): > 100 µM
- TGI (ACHN renal): > 100 µM
- TGI (RXF 393 renal): > 100 µM
- TGI (BT-549 breast): > 100 µM
- TGI (KM12 colon): 42.9 µM
- TGI (NCI/ADR-RES ovarian): > 100 µM
- TGI (HOP-92 NSCLC): > 100 µM
- TGI (DU-145 prostate): > 100 µM
- TGI (HL-60(TB) leukemia): > 100 µM
- TGI (SK-MEL-5 melanoma): > 100 µM
- TGI (UACC-257 melanoma): > 100 µM
- TGI (SN12C renal): > 100 µM
- TGI (COLO 205 colon): > 100 µM
- TGI (CAKI-1 renal): > 100 µM
- TGI (MALME-3M melanoma): > 100 µM
- TGI (HOP-62 NSCLC): > 100 µM
- TGI (HCT-15 colon): > 100 µM
- TGI (EKVX NSCLC): > 100 µM
- TGI (HCC-2998 colon): > 100 µM
- TGI (MDA-MB-435): > 100 µM
- TGI (T-47D breast): > 100 µM
- TGI (SNB-19 CNS): > 100 µM
- TGI (UO-31 renal): > 100 µM
- TGI (RPMI-8226 leukemia): > 100 µM
- TGI (M14 melanoma): > 100 µM
- TGI (OVCAR-4 ovarian): > 100 µM
- TGI (U251 CNS): > 100 µM
- TGI (A498 renal): > 100 µM
- TGI (786-0 renal): > 100 µM
